Results as given in patent US20030032580A1, “Use of agonists or antagonists of the 5-HT7 receptor to treat disorders of the bladder” (Synaptic Pharmaceutical Corporation, priority 1999, published 2003).
Where “and” joins values, the source holds several entries; their conditions need not be identical. Equal values may be shown once.

Tests used:
[1] = target: T1, 5-HT2B receptor (second phase of the concentration-effect curve to 5-CT in the rat bladder) (Rattus norvegicus, UniProt P30994); experiment: Electrically stimulated rat bladder strips: second (low potency) phase of the concentration-effect curve to 5-CT; type: cell-based; conditions: for effect on low potency responses to 5-CT: pindolol 1 μM, tropisetron 10 μM, ketanserin 0.1 μM
T1 construct: from tissue; host or cells: rat urinary bladder detrusor strips

[2] = target: T2, 5-HT7 receptor (first phase of the concentration-effect curve to 5-CT in the rat bladder) (Rattus norvegicus, UniProt P32305); experiment: Electrically stimulated rat bladder strips: first (high potency) phase of the concentration-effect curve to 5-CT; type: cell-based; conditions: for effect on high potency responses to 5-CT: pindolol 1 μM, tropisetron 10 μM, ketanserin 0.1 μM
T2 construct: from tissue; host or cells: rat urinary bladder detrusor strips

[3] = target: cloned rat 5-HT7 receptor (Rattus norvegicus, UniProt P32305); conditions: references 2 and 3; cited from earlier work
[4] = target: cloned rat 5-HT2B receptor (Rattus norvegicus, UniProt P30994); conditions: cited from earlier work
[5] = target: cloned human 5-HT7 receptor (Homo sapiens, UniProt P34969); conditions: cited from earlier work; for pK1: cloned human 5-HT7 receptor, references 1 and 4
5-HT1A = target: T3, 5-HT1A (Homo sapiens, UniProt P08908); conditions: Hoyer, 1989; cited from earlier work
T3 sequence (P08908 1-422): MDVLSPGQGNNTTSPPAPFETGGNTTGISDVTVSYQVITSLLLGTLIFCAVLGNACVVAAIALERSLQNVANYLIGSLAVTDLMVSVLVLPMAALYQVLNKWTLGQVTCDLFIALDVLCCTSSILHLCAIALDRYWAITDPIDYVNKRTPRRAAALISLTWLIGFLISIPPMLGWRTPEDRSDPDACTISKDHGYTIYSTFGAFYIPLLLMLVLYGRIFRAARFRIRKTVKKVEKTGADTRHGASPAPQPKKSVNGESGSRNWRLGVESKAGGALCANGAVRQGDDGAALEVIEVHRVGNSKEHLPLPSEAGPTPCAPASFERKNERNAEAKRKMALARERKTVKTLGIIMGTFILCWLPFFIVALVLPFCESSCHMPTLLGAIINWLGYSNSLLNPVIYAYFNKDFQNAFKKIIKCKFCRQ

5-HT1B = 5-HT1B (Rattus norvegicus, UniProt P28564); conditions: Hoyer, 1989; Hoyer et al., 1994; cited from earlier work
5-HT1E = 5-HT1E (Homo sapiens, UniProt P28566); conditions: Adham et al., 1993; cited from earlier work
5-HT2C = target: T4, 5-HT2C (Homo sapiens, UniProt P28335); conditions: Hoyer, 1989; Hoyer et al., 1994; cited from earlier work
T4 sequence (P28335 33-458): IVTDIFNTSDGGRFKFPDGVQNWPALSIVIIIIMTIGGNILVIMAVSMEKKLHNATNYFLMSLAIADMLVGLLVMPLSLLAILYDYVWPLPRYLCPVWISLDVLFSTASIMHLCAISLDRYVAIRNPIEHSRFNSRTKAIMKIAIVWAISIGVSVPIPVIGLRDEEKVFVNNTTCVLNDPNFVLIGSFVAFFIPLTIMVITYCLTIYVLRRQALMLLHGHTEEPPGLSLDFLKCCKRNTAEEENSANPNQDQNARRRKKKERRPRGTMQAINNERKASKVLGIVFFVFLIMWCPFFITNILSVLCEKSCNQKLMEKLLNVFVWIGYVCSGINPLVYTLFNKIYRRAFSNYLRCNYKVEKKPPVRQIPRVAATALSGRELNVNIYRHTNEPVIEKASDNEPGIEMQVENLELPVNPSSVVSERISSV

5-HT2A = 5-HT2A (Homo sapiens, UniProt P28223); conditions: Hoyer, 1989; Hoyer et al., 1994; cited from earlier work
[6] = test system: rat urinary bladder strips; experiment: Isolated rat urinary bladder strips: agonist-evoked increase of electrically evoked, nerve-mediated contractions; type: cell-based; conditions: for effect on the magnitude of electrically evoked contractions: agonist alone, electrically stimulated rat bladder strips; for ability to modify the effects of 5-HT: 10 μM
Description: 5-HT receptors in the rat urinary bladder which, when activated by serotonin agonists, cause increases in the magnitude of nerve-mediated contractions, were identified and characterized pharmacologically using isolated strips of rat bladder.
Urinary bladders were isolated from female CD rats (Charles Rivers, 250-300 g). The bladder base (lower third) was removed and the detrusor region was opened into a flat sheet by cutting from the basal opening to the apex. This was cut into quadrants, each of which was attached on its lateral edges by two tissue clips and suspended in a 5 ml tissue bath containing Krebs' solution (pH 7.4 37° C.) of the following composition (mM): NaCl (118), KCl (4.9), NaHCO3 (25), MgCl2 (1.2), NaHPO4 (1.0), CaCl2 (2.5), glucose (11) and aerated continuously with 95% O2/5% CO2. Except in initial experiments, prazosin (0.1 μM), idazoxan (0.3 μM), and indomethacin (10 μM) were included routinely in the buffer to block α1- and α2-adrenoceptors and to prevent the formation of prostaglandins, respectively. After allowing 30 min for equilibration, bladder strips were placed under 1.0 g resting tension, readjusted 6 times over the next 30 min. For most experiments contractile responses were evoked by transmural electrical impulses delivered by Grass S-88 (Grass Instruments, City, Mass.) stimulators (single pulses, 0.1 Hz, 1 ms pulse width, 90 V) through a pair of stainless steel electrodes. Contractions were measured using isometric force transducers (Radnotti Instruments, Monrovia, Calif.) and recorded using MacLab software (AD Instruments, Milford, Mass.).
Bladder strips, in Krebs' solution containing antagonist or vehicle, were stimulated at supramaximal voltage until contractions of consistent magnitude were obtained (ca. 30 min). During this period the Krebs' solution was exchanged at 15 min intervals. Cumulative concentration-effect curves were then constructed by administering 5-carboxamidotryptamine (5-CT) or other agonists in 0.5 log M increments. Responses are expressed as a percent of control, and represent agonist-evoked increases in the magnitude of the electrically evoked contractions relative to that in the absence of agonist (“control”, taken as 100%). […] Therefore, only a single agonist concentration-effect curve was constructed in each tissue.
Concentration-effect curves were fitted (Kaleidagraph, Synergy Software, PCS Inc., Reading PA) to 1-site or 2-site models of agonism as represented by the following equations:
(1-site): Effect=Emax[A]^n/[A]^n+EC50^n;
(2-site): Effect=(Emax^a[A]/[A]+EC50^a+(Emax^b[A]/[A]+EC50^b),
where Emax represents the maximum effect of the agonist, [A] is the agonist molar concentration, EC50 is the concentration of agonist eliciting half its maximum effect, n is the slope factor, and the italicized superscripts (a and b) denote values for the first and second phase of the biphasic curve. Antagonist pKB values were determined using the formula described by Furchgott (1972): pKB=log (agonist concentration ratio −1/antagonist concentration [M]. In some instances, pKB values were determined according to the method of Arunlakshana and Schild (1959), in which the slope of the Schild plot was constrained to unity. Concentration ratios for Schild analyses were calculated from mean EC50 values for the agonist in the absence and presence of the antagonist in experiments from n different animals.

[7] = test system: rat bladder strips (postjunctional response to α,β-methylene-ATP); type: cell-based; conditions: 0.1 and 10 μM; 5 minute incubation; tetrodotoxin 0.1 μM; α,β-methylene-ATP 3 μM
5-HT1F = target: T5, 5-HT1F (Homo sapiens, UniProt P30939); conditions: Adham et al., 1993; cited from earlier work
T5 sequence (P30939 1-366): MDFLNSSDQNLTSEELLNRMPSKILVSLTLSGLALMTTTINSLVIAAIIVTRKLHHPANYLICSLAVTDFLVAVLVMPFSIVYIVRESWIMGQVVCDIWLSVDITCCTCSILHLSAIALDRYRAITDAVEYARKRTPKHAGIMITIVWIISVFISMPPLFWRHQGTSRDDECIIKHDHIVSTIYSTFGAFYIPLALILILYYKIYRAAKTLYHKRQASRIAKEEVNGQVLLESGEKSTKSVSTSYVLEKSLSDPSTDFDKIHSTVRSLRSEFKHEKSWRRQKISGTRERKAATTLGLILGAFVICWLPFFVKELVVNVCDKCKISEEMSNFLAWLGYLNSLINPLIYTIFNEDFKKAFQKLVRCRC

5-HT6 = 5-HT6 (Rattus norvegicus, UniProt P31388); conditions: Hoyer et al., 1994; cited from earlier work
5-HT1D = conditions: Hoyer, 1989; Hoyer et al., 1994; cited from earlier work
5-HT5A = conditions: Hoyer et al., 1994; cited from earlier work
[8] = bladder pKB versus published values
[9] = bladder pKB versus published value

Chain of cloned rat 5-HT7 receptor (P32305 whole entry): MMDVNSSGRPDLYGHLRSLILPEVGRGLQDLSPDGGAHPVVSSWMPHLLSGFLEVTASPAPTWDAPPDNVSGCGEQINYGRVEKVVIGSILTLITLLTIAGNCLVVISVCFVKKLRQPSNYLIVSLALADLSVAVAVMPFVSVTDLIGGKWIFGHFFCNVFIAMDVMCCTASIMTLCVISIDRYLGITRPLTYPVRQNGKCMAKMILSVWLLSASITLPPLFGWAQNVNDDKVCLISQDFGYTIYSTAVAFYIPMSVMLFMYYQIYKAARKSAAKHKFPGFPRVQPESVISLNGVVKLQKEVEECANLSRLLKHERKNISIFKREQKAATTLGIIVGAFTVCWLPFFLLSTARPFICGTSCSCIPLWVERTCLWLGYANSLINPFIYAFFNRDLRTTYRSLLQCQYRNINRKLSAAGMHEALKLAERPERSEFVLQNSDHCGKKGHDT
T2 sequence (P32305 whole entry): as above
T1 sequence (P30994 whole entry): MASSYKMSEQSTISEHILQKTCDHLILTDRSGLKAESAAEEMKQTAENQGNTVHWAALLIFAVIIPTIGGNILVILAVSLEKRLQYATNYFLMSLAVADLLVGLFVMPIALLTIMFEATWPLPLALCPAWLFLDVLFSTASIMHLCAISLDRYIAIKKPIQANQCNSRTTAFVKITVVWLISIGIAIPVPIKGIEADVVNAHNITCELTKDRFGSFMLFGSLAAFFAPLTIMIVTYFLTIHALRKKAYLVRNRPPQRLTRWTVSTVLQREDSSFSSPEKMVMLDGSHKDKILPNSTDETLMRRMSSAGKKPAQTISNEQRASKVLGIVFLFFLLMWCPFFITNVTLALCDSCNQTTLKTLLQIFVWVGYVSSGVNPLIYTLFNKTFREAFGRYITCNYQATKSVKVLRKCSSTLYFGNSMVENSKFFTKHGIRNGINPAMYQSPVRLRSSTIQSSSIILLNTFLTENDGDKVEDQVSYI
Chain of 5-HT1B (P28564 whole entry): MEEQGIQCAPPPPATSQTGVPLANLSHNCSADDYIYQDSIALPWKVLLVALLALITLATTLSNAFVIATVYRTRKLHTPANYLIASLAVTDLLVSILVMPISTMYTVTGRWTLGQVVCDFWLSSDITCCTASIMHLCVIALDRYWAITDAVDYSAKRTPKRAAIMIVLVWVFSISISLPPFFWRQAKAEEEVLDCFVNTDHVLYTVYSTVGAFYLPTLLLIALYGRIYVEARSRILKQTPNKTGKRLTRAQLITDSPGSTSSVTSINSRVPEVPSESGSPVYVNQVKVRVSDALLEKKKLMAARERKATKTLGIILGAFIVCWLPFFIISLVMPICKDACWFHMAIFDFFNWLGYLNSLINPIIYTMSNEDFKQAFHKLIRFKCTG
Chain of cloned human 5-HT7 receptor (P34969 1-445 isoform P34969-2): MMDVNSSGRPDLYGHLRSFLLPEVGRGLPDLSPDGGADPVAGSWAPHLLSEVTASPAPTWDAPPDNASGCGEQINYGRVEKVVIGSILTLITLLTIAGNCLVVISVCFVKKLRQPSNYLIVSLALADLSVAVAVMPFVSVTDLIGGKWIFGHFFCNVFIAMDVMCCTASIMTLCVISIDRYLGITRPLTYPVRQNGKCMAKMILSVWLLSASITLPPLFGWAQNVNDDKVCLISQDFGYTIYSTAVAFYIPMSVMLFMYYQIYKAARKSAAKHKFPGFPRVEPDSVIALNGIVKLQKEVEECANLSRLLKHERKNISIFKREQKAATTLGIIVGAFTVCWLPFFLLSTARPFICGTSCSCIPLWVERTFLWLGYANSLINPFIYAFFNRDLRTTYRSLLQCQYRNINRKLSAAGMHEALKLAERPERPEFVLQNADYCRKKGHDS
Chain of 5-HT1E (P28566 whole entry): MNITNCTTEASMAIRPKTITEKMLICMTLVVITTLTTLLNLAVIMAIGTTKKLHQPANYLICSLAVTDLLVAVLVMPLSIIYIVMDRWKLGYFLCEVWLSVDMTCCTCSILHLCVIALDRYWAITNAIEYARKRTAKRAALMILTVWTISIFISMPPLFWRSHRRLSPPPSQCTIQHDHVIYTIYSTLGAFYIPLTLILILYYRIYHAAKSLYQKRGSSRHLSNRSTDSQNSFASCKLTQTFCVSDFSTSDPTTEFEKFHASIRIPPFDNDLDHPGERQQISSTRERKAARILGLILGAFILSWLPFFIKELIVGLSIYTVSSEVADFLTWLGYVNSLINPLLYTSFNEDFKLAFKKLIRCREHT
Chain of cloned rat 5-HT2B receptor (P30994 whole entry): as the sequence (P30994 whole entry) above
Chain of 5-HT2A (P28223 whole entry, species assumed): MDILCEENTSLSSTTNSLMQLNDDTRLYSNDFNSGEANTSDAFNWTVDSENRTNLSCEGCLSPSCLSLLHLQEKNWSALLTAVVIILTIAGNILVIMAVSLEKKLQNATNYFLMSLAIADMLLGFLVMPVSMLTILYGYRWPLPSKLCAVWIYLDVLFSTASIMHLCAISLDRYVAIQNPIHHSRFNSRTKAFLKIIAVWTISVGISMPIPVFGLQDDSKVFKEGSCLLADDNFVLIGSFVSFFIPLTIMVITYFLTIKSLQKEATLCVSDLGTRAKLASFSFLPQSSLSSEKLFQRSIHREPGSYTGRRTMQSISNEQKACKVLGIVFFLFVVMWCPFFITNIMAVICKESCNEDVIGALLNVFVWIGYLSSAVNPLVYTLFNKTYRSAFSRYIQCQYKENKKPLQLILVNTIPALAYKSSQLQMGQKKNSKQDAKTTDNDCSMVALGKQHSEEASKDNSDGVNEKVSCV
Chain of 5-HT6 (P31388 whole entry): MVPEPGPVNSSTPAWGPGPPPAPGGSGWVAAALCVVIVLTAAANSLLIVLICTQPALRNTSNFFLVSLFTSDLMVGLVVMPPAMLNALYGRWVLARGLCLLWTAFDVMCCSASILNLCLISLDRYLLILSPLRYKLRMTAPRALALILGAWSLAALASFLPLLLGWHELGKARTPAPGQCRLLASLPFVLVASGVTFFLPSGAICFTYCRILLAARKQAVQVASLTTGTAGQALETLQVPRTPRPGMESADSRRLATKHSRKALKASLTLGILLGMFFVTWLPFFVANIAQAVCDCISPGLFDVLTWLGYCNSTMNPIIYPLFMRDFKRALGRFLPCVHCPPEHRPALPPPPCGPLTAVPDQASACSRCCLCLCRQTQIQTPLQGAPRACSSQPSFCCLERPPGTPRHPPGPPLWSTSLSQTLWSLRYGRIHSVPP

CC(C)NCC(O)COc1cccc2[nH]ccc12 (single isomer, unassigned) [pindolol]
effect on low potency responses to 5-CT [1]: not affected | effect on high potency responses to 5-CT [2]: not affected | pK1 [3]: <6

c1ccc2c(N3CCNCC3)cccc2c1 [1-NP, 1-(1-naphthyl)piperazine]
Kb [1]: 3.16 nM | shift of the low potency (second) phase of the concentration-effect curve ([1]; 0.1 μM): 100 fold | second-phase affinity greater than affinity for 5-HT1A, 5-HT1B, 5-HT1E, 5-HT2A and 5-HT7 subtypes [1, 8]: at least 10 fold | slope of Schild analysis ([1]; second phase, 0.01 to 1.0 μM): unit slope | effect on the high potency (first) phase of the curve ([2]; 0.1 μM): no effect | rightward shift of the first phase of the response to 5-CT ([2]; 1.0 μM): 6.8 ±0.54 fold | Kb ([2]; pKB, inhibition of the first phase of the concentration-effect curve to 5-CT in the rat bladder, antagonists tested in the presence of 0.1 μM 1-NP): 158 nM and 251 nM | pKB, 5-HT2B ([4]; Wainscott et al., 1993): 8.3 | pK1 ([4]; cloned rat 5-HT2B receptor, reference 1 (Wainscott et al., 1993)): 8.3-8.7 | pKB, 5-HT7 ([5]; Bard et al., 1993): 7.1 | pK1 [5]: 7.1 | pKB, 5-HT1A (5-HT1A): 7.2 | pKB, 5-HT1B (5-HT1B): 6.6 | pKB, 5-HT1E (5-HT1E): 6.7 | pKB, 5-HT2C (5-HT2C): 8.2 | pKB, 5-HT2A (5-HT2A): 7.2

NCCc1c[nH]c2ccc(C(N)=O)cc12 [5-CT, 5-carboxamidotryptamine]
difference in EC50 values between first and second phase [6]: 100 fold | effect on the magnitude of electrically evoked contractions [6]: mimicked | EC50 [1]: 158 nM | EC50 [2]: 1.58 nM | effect on the magnitude of a subsequent contraction to α,β-methylene-ATP [7]: failed to significantly modify

NCCc1c[nH]c2ccc(O)cc12 [5-HT, 5-hydroxytryptamine]
effect on the magnitude of electrically evoked contractions [6]: marked increases

COc1ccc2[nH]cc(CCN)c2c1 [5-MeOT]
effect on the magnitude of electrically evoked contractions [6]: mimicked

CCCN(CCC)C1CCc2cccc(O)c2C1 (stereo not drawn) [8-OH-DPAT]
ability to modify the effects of 5-HT [6]: failure | effect on the magnitude of electrically evoked contractions [6]: inactive

CC(C)n1c(=O)n(C(=O)NC2CC3CCC(C2)N3C)c2ccccc21 (stereo not drawn) [BIMU-8]
ability to modify the effects of 5-HT [6]: failure | effect on the magnitude of electrically evoked contractions [6]: inactive

CCCN(CCC)CCc1c[nH]c2ccc(C(N)=O)cc12 [DP-5-CT]
effect on the magnitude of electrically evoked contractions [6]: mimicked

CC(C)n1cc2c3c(cccc31)C1C[C@@H](C(=O)N[C@H]3CCC[C@H]3O)CN(C)[C@@H]1C2 (stereo partly drawn) [LY215840]
pKB ([2]; inhibition of the first phase of the concentration-effect curve to 5-CT in the rat bladder, antagonists tested in the presence of 0.1 μM 1-NP): 8.2 | pK1 [5]: 7.8

O=C(c1ccc(F)cc1)C1CCN(CCn2c(=O)[nH]c3ccccc3c2=O)CC1 [ketanserin]
effect on low potency responses to 5-CT [1]: not affected | effect on high potency responses to 5-CT [2]: not affected | pK1 [3]: 5.6

CN1C[C@@H](NS(=O)(=O)N(C)C)C[C@@H]2c3cccc4c3c(cn4C)C[C@H]21 [mesulergine]
pKB, 5-HT1A (5-HT1A): 6.2 | pKB, 5-HT1B (5-HT1B): 4.9 | pKB, 5-HT1F (5-HT1F): < 5 | pKB, 5-HT6 (5-HT6): 5.8 | pKB, 5-HT2A (5-HT2A): 9.1

CSc1ccc2c(c1)C(N1CCN(C)CC1)Cc1ccccc1S2 (stereo not drawn) [methiothepin]
pKB, 5-HT1B (5-HT1B): 7.3 | pKB, 5-HT1D (5-HT1D): 7.3 | pKB, 5-HT1E (5-HT1E): 6.7 | pKB, 5-HT1F (5-HT1F): 6.2 | pKB, 5-HT5A (5-HT5A): 7.0

O=C(CCCN1CCC2(CC1)C(=O)NCN2c1ccccc1)c1ccc(F)cc1 [spiperone]
first-phase affinity greater than that for the 5-HT2C receptor subtype [2, 9]: ~30 fold | first-phase affinity lower than that for the 5-HT2A receptor subtype [2, 9]: ~30 fold | first-phase affinity greater than that for 5-HT1B, 5-HT1D, 5-HT5A and 5-HT2B receptor subtype [2, 8]: at least 100 fold | pKB, 5-HT1B (5-HT1B): 4.4 | pKB, 5-HT1D (5-HT1D): 4.8 | pKB, 5-HT2C (5-HT2C): 5.9 | pKB, 5-HT5A (5-HT5A): 5.6

CN1[C@@H]2CC[C@H]1C[C@@H](OC(=O)c1c[nH]c3ccccc13)C2 [tropisetron]
effect on low potency responses to 5-CT [1]: not affected | effect on high potency responses to 5-CT [2]: not affected | pK1 [3]: <4.5

CC(N)Cc1c[nH]c2ccc(O)cc12 (stereo not drawn) [α-Me-5-HT, α-methyl-5-hydroxytryptamine]
effect on the magnitude of electrically evoked contractions [6]: mimicked
